Assay results reported in patent US8168232B2, “Formulations and methods of using nitric oxide mimetics in cancer treatment” (priority 2000, dated 2012).

Tests used:
uPAR protein = assay: Western blot analysis of uPAR protein in MDA-MB-231 breast carcinoma cells; assay type: cell-based, human
Method: Following incubations, the cells were lysed using a buffer containing 40 mM HEPES pH 7.2, 100 mM NaCl, 20% glycerol, 0.1 mM EDTA pH 8.0, 0.2% Triton X-100, 1 mM DTT, and 2 mM PMSF. The lysates were then subjected to homogenization, DNA shearing (10 times with a 25⅝-gauge needle), boiling (5 minutes) and centrifugation (15 minutes, 14000 g). The supernatant was collected and stored at −80° C. until use. The samples were subjected to SDS-polyacrylamide gel electrophoresis (PAGE) and the resolved proteins were transferred to an Immobilon-P membrane using a wet transfer apparatus (Bio-Rad Laboratories, Mississauga, ON). The membranes were blocked overnight at 4° C. in a solution containing 1% PBS, and 0.01% Tween20 (PBS-T) as well as 5% casein. The blots were subsequently incubated for 1.5 hours with the monoclonal anti-uPAR antibody [MoAb 3937], followed by six 5 minute washes with PBS-T. The membranes were then incubated with a horseradish peroxidase labeled goat anti-mouse IgG secondary antibody for 1.5 hours. Following six additional 5 minute washes with PBS-T, the antigen was detected by enhanced chemiluminescence and the blots were exposed onto Dupont Reflection NEF film.
Following incubation, the cells were lysed using a buffer containing 40 mM HEPES pH 7.2, 100 mM NaCl, 20% glycerol, 0.1 mM EDTA pH 8.0, 0.2% Triton X-100, 1 mM dithiothreitol (DTT), and 2 mM phenylmethyl sulfonyl fluoride (PMSF). The lysates were then subjected to homogenization, DNA shearing (10 times with a 25⅝-gauge needle), boiling (5 minutes) and centrifugation (15 minutes at 14,000×g). The supernatant was collected and stored at −80° C. until use. The samples were subjected to SDS-polyacrylamide gel electrophoresis (PAGE) and the resolved proteins were transferred to an Immobilon-P membrane (Millipore Corp., Bedford, Mass.) using a wet transfer apparatus (BioRad Laboratories, Mississauga, ON). The membranes were blocked overnight at 4° C. in a solution containing 1% PBS, and 0.01% Tween 20 (PBS-T) as well as 5% dry milk powder. The blots were subsequently incubated for 1.5 hours with the monoclonal anti-uPAR (MoAb 3937; American Diagnostica Inc., Greenwich, Conn.), or a polyclonal soluble guanylate cyclase (sGC) antiserum (Cayman Chemical, Ann Arbor, Mich.) followed by six 5-minute washes with PBS-T. Subsequently, the uPAR membranes were incubated for 1 hour with a horseradish peroxidase labelled goat anti-mouse IgG secondary antibody (Bio-Rad, Hercules, Calif.) and the sGC membranes were incubated for 1 hour with a goat anti-rabbit IgG horseradish peroxidase conjugate (VECTOR Laboratories Inc., Burlingame, Calif.). Following six additional 5-minute washes with PBS-T, the antigen was detected by enhanced chemiluminescence (Amersham Canada Inc., Mississauga, ON) and the blots were exposed onto Dupont Reflection NEF film.

[1] = tested on: Bl6F10 metastatic melanoma cells; assay: In vivo experimental metastasis (lung colonization) model; parameters: species or system C57BL6 mice
Method: C57BL6 mice were injected i.v. (tail vein) with a bolus of 5×10^4-10^5 Bl6F10 metastatic melanoma cells. Immediately after the tail vein injection, mice were randomly divided into groups of 15 and mice in each group were placed in plexiglass chambers (approximately 3 L) which were continuously flushed with gas mixtures of 20% O2:balance N2 and 10% O2:balance N2, respectively. […] After a 24 hour exposure to an atmosphere of either 20% O2 or 10% O2, mice were removed from the chambers and placed in regular cages kept at room air. Thirteen days later, mice were sacrificed by cervical dislocation, and lungs were removed and fixed in Bouin's fixative (Sigma). Metastatic nodules (many of which appeared black due to the presence of melanin) on the surface of the lungs were counted visually under a dissecting microscope. Data were expressed as the number of lung nodules per 10^4 cells injected and were analyzed using statistical tests for non-parametric values.
Cells were then removed from plates with trypsin and 5×10^4 cells were injected i.v. (tail vein) into C57BL6 female mice. Some of the cells treated in vitro were plated onto tissue culture dishes to determine colony-forming ability using the protocol described below in the Section I.J.
Following harvesting from culture plates, 5×10^4 cells were injected intravenously (tail vein injections) into 5-7 week old C57Bl/6 female mice. Cells were also plated in tissue culture plates to determine the effect of culture conditions on in vitro colony forming ability. Fourteen days after intravenous inoculation, mice were sacrificed and their lungs were removed and fixed in Bouin's fixative. Both melanotic and amelanotic metastatic colonies were counted under a dissecting microscope. Data were expressed as the number of lung nodules per 5×10^4 viable cells injected (as determined by in vitro colony-forming ability) and were analyzed using statistical tests for non-parametric values.

[2] = tested on: MDA-MB-231 breast cancer cells; assay: Colony formation assay for doxorubicin resistance, MDA-MB-231 monolayer; assay type: cell-based, human
Method: The resistance of MDA-MB-231 breast cancer cells to doxorubicin was determined following culture in 20% or 1% oxygen by counting the number of colonies formed. MDA-MB-231 cells were incubated in 1% O2 or 20% O2 for 24 hours. […] The cells were washed and then plated onto 35 mm plates at different dilutions. The cells were incubated for an additional 1-2 weeks in order to allow cell colonies to grow. At the end of the incubation period, the cells were fixed with Carnoy's fixative, stained with Crystal violet, rinsed and allowed to air dry. Colonies were counted visually. The surviving cells under each condition was determined by counting the number of colonies and was expressed as a fraction of the number of colonies that survived without doxorubicin exposure.
Using human MDA-MB-231 breast carcinoma cells in clonogenic assays, survival was determined following doxorubicin exposure and NO mimetic administration to both monolayer and spheroid cultures. […] However, these NO mimetics effectively attenuated the resistance to 200 μM doxorubicin associated with 3D culture by 90% and 30% respectively.

[3] = tested on: soluble guanylyl cyclase (sGC) / cellular cGMP; assay: cGMP ELISA (sGC activity) in MDA-MB-231 cells; assay type: cell-based, human
Method: The effects of hypoxia and NO-mimetic treatment on sGC levels were determined using Western Blot analysis. To determine sGC activity, cGMP levels were measured. Briefly, cells were extracted over ice in 1 mL of 6% trichloroacetic acid (BDH Laboratory Supplies, Poole, England). The homogenate was then centrifuged at 13,000 g for 10 min. The supernatant fraction was removed and extracted five times with 2 mL of water-saturated diethyl ether (BDH). The cGMP contained in this fraction was subsequently acetylated and quantitated using an enzyme-linked immuno-sorbent assay (ELISA) kit (STI—Signal Transduction Products, San Clemente, Calif.).
To determine the effect of hypoxia on cGMP levels, MDA-MB-231 breast carcinoma cells were incubated in 0.5% O2 for 6 hours in the presence of IBMX (500 μM).

For O=[N+]([O-])OCC(CO[N+](=O)[O-])O[N+](=O)[O-] [GTN, glyceryl trinitrate], the “uPAR protein levels vs 20% O2 alone” value (uPAR protein; combination of L-NMMA (0.5 mM) and GTN (0.1 nM), 20% O2) was “no significant increase”, the “hypoxic upregulation of uPAR protein expression” value (uPAR protein; single doses GTN 1 pM, 1 nM and 0.1 μM, 24 hours 0.5% oxygen) was “prevent the upregulation” and the “decrease of hypoxia-stimulated lung nodule formation” value ([1]; cells pre-treated in vitro 12 h, 1% O2, 2×10^−11 M GTN) was 85%. The “reduction of extent of metastasis” value ([1]; cells pre-treated in vitro 12 h, 20% oxygen, 2×10^−11 M GTN) was “more than 60%”, the “attenuation of L-NMMA metastatic response” value ([1]; concomitant GTN (10^−10 M) and L-NMMA) was 60% and the “doxorubicin survival rates vs untreated hypoxic cells” value ([2]; hypoxic cells, 10^−6 M and 10^−10 M GTN) was “lower doxorubicin survival rates”. The “attenuation of hypoxia-induced resistance to doxorubicin” value ([2]; monolayer cells in 1% O2, GTN 1 μM) was 50%, the “effect on hypoxic reduction of sGC activity (cGMP ELISA)” value ([3]; 0.5% O2, 2 hours, GTN (10^−10 M, 10^−6 M)) was “significantly prevented” and the “effect of hypoxia on accumulated cGMP levels” value ([3]; GTN 1 μM co-incubation, 0.5% O2 6 hours, IBMX 500 μM) was “prevented”. For the same compound, the “effect on hypoxic reduction in cGMP levels” value ([3]; GTN (1 mM) as printed, 6 hrs 0.5% O2, IBMX) was “completely prevented”.
